From article PMC9555642 (PLoS ONE, 2022)

What was measured:
HDAC3 = molecular target: T1, HDAC3 (Homo sapiens, UniProt O15379); test: HDAC enzymatic activity (Eurofins); format: biochemical; conditions: Class I; ACY-1083 mean of two separate measurements, Ricolinostat and Tubastatin A one measurement
T1 construct: purchased Eurofins Pharma Discovery Services 2083

Sigma-1 receptor = molecular target: T2, Sigma-1 receptor (Homo sapiens, UniProt Q99720); test: Secondary pharmacology panel (Eurofins); format: binding
T2 construct: purchased Eurofins Pharma Discovery Services
T2 sequence (Q99720 whole entry, species assumed): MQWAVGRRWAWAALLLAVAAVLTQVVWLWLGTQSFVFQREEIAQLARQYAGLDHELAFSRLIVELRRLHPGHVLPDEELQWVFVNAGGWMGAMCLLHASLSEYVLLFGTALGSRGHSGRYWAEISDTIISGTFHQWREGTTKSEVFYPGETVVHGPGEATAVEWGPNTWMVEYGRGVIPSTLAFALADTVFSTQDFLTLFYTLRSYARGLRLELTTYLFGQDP
Experimental: Second pharmacology screening was performed at Eurofins Pharma Discovery Services in a panel of 190 in vitro radioligand binding and enzyme assays covering a diverse set of enzymes, receptors, ion channels, and transporters.

HDAC10 = molecular target: T3, HDAC10 (Homo sapiens, UniProt Q969S8); test: HDAC enzymatic activity (Eurofins); format: biochemical; conditions: Class IIB; ACY-1083 mean of two separate measurements, Ricolinostat and Tubastatin A one measurement
T3 construct: purchased Eurofins Pharma Discovery Services 2662
T3 sequence (Q969S8 1-669): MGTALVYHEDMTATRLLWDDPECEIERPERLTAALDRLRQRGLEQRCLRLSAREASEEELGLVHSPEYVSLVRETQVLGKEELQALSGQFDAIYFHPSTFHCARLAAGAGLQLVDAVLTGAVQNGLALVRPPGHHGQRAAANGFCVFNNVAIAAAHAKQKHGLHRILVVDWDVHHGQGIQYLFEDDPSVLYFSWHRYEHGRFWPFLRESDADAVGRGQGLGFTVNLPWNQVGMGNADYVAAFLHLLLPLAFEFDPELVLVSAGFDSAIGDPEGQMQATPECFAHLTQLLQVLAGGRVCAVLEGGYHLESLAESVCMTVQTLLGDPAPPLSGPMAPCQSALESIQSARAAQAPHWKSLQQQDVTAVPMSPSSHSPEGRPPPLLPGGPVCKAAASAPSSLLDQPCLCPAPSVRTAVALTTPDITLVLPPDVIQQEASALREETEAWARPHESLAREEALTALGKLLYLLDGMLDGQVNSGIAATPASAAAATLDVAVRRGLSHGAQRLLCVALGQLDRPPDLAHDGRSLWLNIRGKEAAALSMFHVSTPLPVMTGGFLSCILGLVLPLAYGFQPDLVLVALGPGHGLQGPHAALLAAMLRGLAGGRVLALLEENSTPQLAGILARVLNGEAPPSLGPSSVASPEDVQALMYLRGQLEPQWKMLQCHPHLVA

COPD HBEC ALI cultures [1] = test: Cigarette smoke extract (CSE) challenge in ALI, FITC-dextran permeability; format: cell-based, human; conditions: 10 μM pre-treatment 3 days, CSE 1, 3 and 6% for 48 hours, two COPD donors
Experimental: The paracellular permeability was determined by using fluorescein isothiocyanate labeled 4kD-dextran (Sigma-Aldrich, St. Louis, USA). 18 hours after addition of 0.2 mg FITC-dextran in 200 μL medium to the apical side of the ALI cultures, the fluorescence in the basolateral medium was measured using PHERAstar FSX (excitation 485 nm and emission 520 nm) (BMG LABTECH, Ortenberg, Germany). The time point was chosen for optimal window in the assays as well as practical reasons and has been kept consistent in between different stimulations throughout this work. Data was plotted as fold-change of 0.1% DMSO control.
Cigarette smoke extract (CSE) experiments were performed using CSE containing media. In short, smoke from five filterless Kentucky research cigarettes, 3R4F (Kentucky Tobacco Research and Development Center, Lexington, USA), was bubbled through 25 ml of PBS at a speed of five minutes per cigarette. The CSE was filtered through a 0.2 μm sterile filter and stored at -80°C until addition to the basolateral side of HBEC ALI cultures from two COPD donors. […] Permeability was measured after 48 hours.

Haemophilus influenzae = test: Pilot test of bactericidal effect, bacteria in media; format: cell-based; conditions: bacteria suspended in media incubated for one hour with ACY-1083, pilot experiment
COPD HBEC ALI cultures [2] = test: Western blot of membrane protein from ALI cell cultures; format: cell-based, human; conditions: 10 μM, TNF-challenged, four COPD donors, trend observed
Experimental: For extraction of membrane and cytosol proteins the cells were lysed according to the Mem-PER Plus Membrane Protein Kit protocol (#89842, ThermoFisher Scientific). The supernatants were kept frozen in −80°C until total protein quantification. Quantification of total protein in the lysates was done using Pierce BCA Protein Assay Kit (#23227, Thermo Scientific) following the manufacturer´s instructions. Lysates containing 8 μg total protein were mixed with NuPAGE LDS Sample buffer 4x (NP007, Invitrogen), NuPAGE Sample Reducing Agent 10x (NP004, Invitrogen) and deionized water and then heated for ten minutes at 70°C. The samples were loaded onto NuPAGE 4–12% Bis-Tris Gels (NP0335, Invitrogen) and run at 120V for 100 minutes in NuPAGE MOPS SDS Running buffer (NP0001, Invitrogen). The proteins were transferred to nitrocellulose membranes (LC2001, Invitrogen) at 35 mA overnight using NuPAGE Transfer buffer (NP0006, Invitrogen) supplemented with 20% methanol. The membranes were stained with Revert Total Protein Stain (926–11011, LI-COR Biosciences) for five minutes, washed and then imaged in the 700 nm channel using Odyssey CLX imaging system (LI-COR Biosciences). To correct for variation in loading the total signal intensity of all proteins in each lane were used for normalization. An inter-membrane control sample was loaded to all gels to assure there were no differences due to methodology between the blots. The stain was removed with Revert Destaining Solution (926–11013, LI-COR Biosciences) and the membranes were blocked in Intercept (TBS) Blocking Buffer (927–60001, LI-COR Biosciences) for one hour on a shaker. […] After a final wash, three times for ten minutes in TBS-T, the fluorescent signals were detected using the Odyssey CLX imaging system and the signals were analysed using Image Studio software (v4.0, LI-COR Biosciences).

HDAC9 = molecular target: T4, HDAC9 (Homo sapiens, UniProt Q9UKV0); test: HDAC enzymatic activity (Eurofins); format: biochemical; conditions: Class IIA; ACY-1083 mean of two separate measurements, Ricolinostat and Tubastatin A one measurement
T4 construct: purchased Eurofins Pharma Discovery Services 2611
T4 sequence (Q9UKV0 whole entry): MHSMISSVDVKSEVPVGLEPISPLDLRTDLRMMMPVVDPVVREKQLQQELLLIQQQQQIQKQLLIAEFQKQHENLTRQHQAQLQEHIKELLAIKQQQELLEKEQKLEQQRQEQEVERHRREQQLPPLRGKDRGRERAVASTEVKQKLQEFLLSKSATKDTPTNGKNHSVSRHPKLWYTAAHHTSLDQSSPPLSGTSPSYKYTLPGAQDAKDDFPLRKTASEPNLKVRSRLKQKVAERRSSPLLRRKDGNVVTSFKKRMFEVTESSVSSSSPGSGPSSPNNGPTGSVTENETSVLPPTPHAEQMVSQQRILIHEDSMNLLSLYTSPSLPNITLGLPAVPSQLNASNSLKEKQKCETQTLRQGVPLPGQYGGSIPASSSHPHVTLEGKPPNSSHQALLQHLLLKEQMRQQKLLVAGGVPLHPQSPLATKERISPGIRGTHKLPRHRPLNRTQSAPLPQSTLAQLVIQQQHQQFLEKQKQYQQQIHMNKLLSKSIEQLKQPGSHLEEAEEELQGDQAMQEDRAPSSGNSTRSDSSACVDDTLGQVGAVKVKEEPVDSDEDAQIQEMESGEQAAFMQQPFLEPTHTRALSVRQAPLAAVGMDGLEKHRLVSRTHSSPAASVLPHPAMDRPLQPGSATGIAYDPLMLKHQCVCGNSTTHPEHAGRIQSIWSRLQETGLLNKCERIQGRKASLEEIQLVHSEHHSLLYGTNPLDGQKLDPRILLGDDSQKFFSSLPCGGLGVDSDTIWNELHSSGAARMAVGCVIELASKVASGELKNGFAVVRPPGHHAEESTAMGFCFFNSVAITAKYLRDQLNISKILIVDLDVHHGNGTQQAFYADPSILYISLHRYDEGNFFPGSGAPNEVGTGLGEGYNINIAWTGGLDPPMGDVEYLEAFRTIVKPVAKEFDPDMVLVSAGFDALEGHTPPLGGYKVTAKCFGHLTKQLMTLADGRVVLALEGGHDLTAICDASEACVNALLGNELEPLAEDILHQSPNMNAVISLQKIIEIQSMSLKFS

T1 sequence (O15379 whole entry): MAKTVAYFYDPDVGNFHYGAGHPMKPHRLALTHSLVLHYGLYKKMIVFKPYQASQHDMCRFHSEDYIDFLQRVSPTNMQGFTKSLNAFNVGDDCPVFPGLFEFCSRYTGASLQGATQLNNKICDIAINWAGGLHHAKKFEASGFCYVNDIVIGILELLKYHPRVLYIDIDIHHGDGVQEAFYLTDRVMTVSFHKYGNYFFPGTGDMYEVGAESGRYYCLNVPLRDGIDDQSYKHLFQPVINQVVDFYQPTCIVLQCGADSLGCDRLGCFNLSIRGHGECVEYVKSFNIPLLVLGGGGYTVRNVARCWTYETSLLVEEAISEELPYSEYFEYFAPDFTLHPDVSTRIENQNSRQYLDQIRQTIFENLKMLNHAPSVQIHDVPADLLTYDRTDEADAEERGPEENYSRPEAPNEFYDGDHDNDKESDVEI
T1 sequence (Q9Y618 395-489 partner limits assumed): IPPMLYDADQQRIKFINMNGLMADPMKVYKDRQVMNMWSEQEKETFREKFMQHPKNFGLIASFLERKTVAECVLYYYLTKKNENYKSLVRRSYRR

Substance: ACY-1083
- IC50 (HDAC3): > 87.5 µM
- IC50 (Sigma-1 receptor): 17 µM
- IC50 (HDAC10): 18.5 µM
- paracellular permeability after CSE challenge (COPD HBEC ALI cultures [1]): reduction in permeability at all concentrations
- bactericidal effect (bacterial counts) (Haemophilus influenzae): no effect on bacterial counts
- E-cadherin level in membrane fraction (COPD HBEC ALI cultures [2]): not significantly higher
- Occludin level in membrane fraction (COPD HBEC ALI cultures [2]): not significantly higher
- β-catenin level in membrane fraction (COPD HBEC ALI cultures [2]): not significantly higher
- IC50 (HDAC9): 19.3 µM
